{"source": "patent US20100261682A1", "about": "“Method and Means for the Treatment of Cachexia” (Bioneris AB, priority 2007, published 2010)", "key": {"[1]": {"tested_on": "4E-BP1 associated with eIF4E", "assay": "Western blot after m7GTP-Sepharose extraction: 4E-BP1 associated with eIF4E", "type": "in vivo, NMRI mice", "details": "40 mg/kg", "description": "(§1) Administration of alpha-trinositol. Mice (n=6) bearing the MAC16 tumour were treated with AT (40 mg/kg) s.c., 3 times per day, for 5 days, while a control group received PBS. Protein synthesis and degradation were determined by the incorporation and release of L-[2,6-^3H]phenylalanine, as described in Smith et al., Cancer Res., 2005; 65:277-83. On the fourth day of treatment half of the group administered 0.4 mmol/L L-[2,6-^3H]phenylalanine in PBS (100 μl) by i.p. administration.\n(§2) Western blot analysis Gastrocnemius muscle (10 mg) was homogenised in Phosphosafe™ Extraction Reagent (500 μl) and centrifuged at 15000 g for 15 min. Samples of the cytosolic proteins (5 μg) were loaded on either a 10% (mTOR, myosin, eIF4E and eIF4G) 12% (PKR, eIF2α and actin) or 15% (4E-BP1) sodium dodecylsulphate-polyacrylamide gel (SDS-PAGE) and electrophoresed at 180 V for approximately 1 h. The extent of phosphorylation of 4E-BP1, and the association of 4E-BP1 and eIF4G with eIF4E was determined by Western blotting when eIF4E was extracted from the muscle samples by m^7GTP-Sepharose 4B-affinity binding, as previously described Eley ey al., Biochem J., 2007; 407:113-20, by loading 20 μg of protein. […] Blots were scanned by a densitometer to quantify differences."}, "MAC16 tumour": {"tested_on": "MAC16 tumour", "assay": "Tumour volume in MAC16 tumour-bearing mice treated with alpha-trinositol (Example 1)", "type": "in vivo, NMRI mice", "details": "10 mg/kg s.c. three times per day", "excerpt": "Animals. Pure strain male NMRI mice (average body weight 25 g) were transplanted with fragments of the MAC16 tumour subcutaneously into the flank by means of a trochar, selected from donor animals with established weight loss (Bibby M C et al., Characterization of transplantable adenocarcinoma in the mouse colon producing cachexia in the recipient animals. J Natl Cancer Inst 78 (1987) 539-546). Transplanted animals were given a rat and mouse breeding diet (Special Diet Services, Witham, UK) and water at lib. Weight loss was evident 10 to 12 days after tumour implantation. Just prior to the development of weight loss 24 animals were randomized into four groups (I-IV) of six animals each.\nAdministration of alpha-trinositol. A first experiment was started when the animals had lost about 5% of body weight. Aliquots (2.5 μl, Group I; 5 μl, Group II; 10 μl, Group III) of alpha-trinositol stock solution corresponding to doses of 10 mg/kg, 20 mg/kg, and 40 mg/kg for a 25 g animal were administered subcutaneously three times per day at 8.00, 12.00 and 16.00 hrs. The fourth group (Group IV; control) was given an intravenous injection of 10 μl of water. Body weight (FIG. 1), tumour volume (FIG. 2), and water and food intake were determined daily after the last injection."}, "[2]": {"tested_on": "Ang II induced protein degradation in murine myotubes", "assay": "Ang II-induced protein degradation in murine myotubes", "type": "cell-based", "details": "AT 100 μM, 2 h prior to addition of Ang II", "description": "(§3) To investigate the mechanism by which AT protects lean body mass in cachexia, further experiments were carried out in vitro using murine myotubes as a surrogate model of skeletal muscle. Incubation with either PIF or angiotensin II (Ang II) induced protein degradation with a characteristic bell-shaped dose-response curve as previously reported (Smith et al., 2004, Br. J. Cancer, and Tisdale et al., 2006, Cell. Sig) with the maximal effect of PIF at 4.2 nM and Ang II at 0.5 μM (FIGS. 5 and 8)."}, "caspase 8": {"tested_on": "caspase 8", "assay": "Caspase 8 activity in gastrocnemius muscle", "type": "in vivo, NMRI mice", "details": "40 mg/kg; still significantly higher than in non-tumour-bearing animals", "description": "as §1\nDetermination of Caspase activity. The activity of caspase 3 was determined by the release of 7-amino-4-methylcoumarin (AMC) from the specific substrate AcDEVD-AMC in the presence or absence of the caspase 3 inhibitor AcDEVD-CHO. […] The supernatant (50 μg protein) was incubated with the caspase 3 substrate for 1 h and the increase in fluorescence due to AMC was determined at an excilation wavelength of 370 nm and an emission wavelength of 430 nm. […] The increase in fluorescence due to the release of 7-amino-4-trifluoro-methylcoumarin (AFC) was measured with an excitation wavelength of 400 nm and an emission of 505 nm."}, "[3]": {"tested_on": "PIF (proteolysis inducing factor) induced protein degradation in murine myotubes", "assay": "PIF-induced protein degradation in murine myotubes", "type": "cell-based", "details": "AT 100 μM, 2 h prior to addition of PIF", "description": "as §3"}, "4E-BP1": {"tested_on": "4E-BP1", "assay": "Western blot of gastrocnemius muscle: phosphorylation of 4E-BP1", "type": "in vivo, NMRI mice", "details": "40 mg/kg; 60% reduction in untreated tumour-bearing animals", "description": "as §1, §2"}, "[4]": {"tested_on": "MAC16 tumour-bearing mice", "assay": "Body weight and gastrocnemius muscle weight in MAC16 tumour-bearing mice (Example 4)", "type": "in vivo, NMRI mice", "details": "40 mg/kg s.c., 3 times per day, 5 days"}, "eIF4G.eIF4E complex": {"tested_on": "eIF4G.eIF4E complex", "assay": "Western blot after m7GTP-Sepharose extraction: active eIF4G.eIF4E complex", "type": "in vivo, NMRI mice", "details": "40 mg/kg", "description": "as §1, §2"}, "p42": {"tested_on": "p42", "assay": "Western blot of gastrocnemius muscle: p42", "type": "in vivo, NMRI mice", "details": "40 mg/kg s.c., 3 times per day", "description": "as §1, §2"}}}
{"compound": "O=P(O)(O)O[C@@H]1[C@H](OP(=O)(O)O)[C@H](O)[C@@H](O)[C@H](O)[C@H]1OP(=O)(O)O", "note": "[alpha-trinositol, 1-D-Myo-inositol 1,2,6-triphosphate]", "values": [{"measurement": "tumour-induced increase of 4E-BP1 associated with eIF4E", "setting": "[1]", "value": "completely attenuated"}, {"measurement": "tumour inhibition", "setting": "MAC16 tumour", "value": "did not produce any statistically significant effect"}, {"measurement": "effect on Ang II-induced protein degradation", "setting": "[2]", "value": "completely attenuated protein degradation down to basal levels"}, {"measurement": "activity of caspase-8 in gastrocnemius muscle", "setting": "caspase 8", "value": "significantly reduced"}, {"measurement": "effect on PIF-induced protein degradation", "setting": "[3]", "value": "completely attenuated protein degradation down to basal levels"}, {"measurement": "tumour-induced reduction in phosphorylation of 4E-BP1 (Thr37/46)", "setting": "4E-BP1", "value": "completely attenuated"}, {"measurement": "gastrocnemius muscle weight compared to the control", "setting": "[4]", "value": "significantly higher"}, {"measurement": "weight loss compared to the control group", "setting": "[4]", "value": "significantly lower"}, {"measurement": "tumour-induced decrease in formation of the active eIF4G.eIF4E complex", "setting": "eIF4G.eIF4E complex", "value": "completely attenuated"}, {"measurement": "expression of p42 in gastrocnemius muscle", "setting": "p42", "value": "down-regulates"}]}
